Laboratory results: US20220395443A1, “Oral Care Compositions and Methods” (Colgate-Palmolive Company, priority 2021, published 2022)
Where two headings read alike, the source gives them in different places.

Tests used:
[1] = tested on: Haemophilus parainfluenzae; test: Growth of nitrate reducing species in optical density assay; type: cell-based; conditions: for Effect on growth of Haemophilus parainfluenzae (in words): 1.5% KNO3 and 0.75% L-arginine alone or in combination, 26 h; for Optical Density (610 nm): pure culture, 0.75% L-arginine, 0.75% KNO3 (so in the source), or 1.5% KNO3 + 0.75% L-arginine by wt. of solution added, measured every two hours for 26 h, control 1.02
Procedure: The impact of 1.5% KNO3 and 0.75% L-arginine alone or in combination on the growth of one known nitrate reducing species, Haemophilus parainfluenzae, is studied. Pure cultures of each species are grown in the presence of the compounds. Note, the wt. % of the potassium nitrate and L-arginine is relative to the total weight of the solution added to the culture. The growth is monitored by measuring the optical density at 610 nm every two hours for 26 h.

Oral biofilms = test: Measurement of nitrite in oral biofilms after potassium nitrate challenge; type: cell-based, human; conditions: treated twice a day for five days with simple solutions; total nitrite after five-minute challenge with 5% potassium nitrate; untreated 0.11
Procedure: Oral biofilms are grown on hydroxyapatite discs in saliva as discussed in the process detailed in Example 3. Over the course of five days, the biofilms receive treatment twice a day. Specifically, the biofilms receive treatment with samples containing simple solutions of water and 3% (by wt.) potassium nitrate and 5% (by wt.) arginine or a simple solution of water and 3% (by wt.) potassium nitrate alone. Following treatment, there is measurement of total nitrite (mg/L) in the biofilms following a five-minute challenge with 5% potassium nitrate.

salivary biofilms = test: In vitro oral biofilm model, simple solutions: total NO3/NO2 in supernatant (colorimetric kit); type: cell-based, human; conditions: for NO3/NO2 (nmole per sample): biofilm supernatant, 2 min treatments twice daily, 5 days, 3% KNO3 and/or 1.5% L-arginine, all with 1.7% TSPP, untreated 5.93; for NO3/NO2 output (in words): repeated treatment with simple solutions
Procedure: (§1) An in vitro model for oral biofilms is treated with either 3% KNO3 or 1.5% L-arginine alone or in combination as simple solutions. Whole human saliva was used to inoculate sterile hydroxyapatite discs held in a vertical position using a specially designed steel lid as indicated in Kumar et al. (2019). Biofilms in Human Diseases: Treatment and Control Nature, the contents of which are incorporated herein by reference in their entirety.
(§2) Following 6 h of inoculum, biofilms are treated for 2 min with simple solutions, rinsed and returned to fresh, filter-sterilized saliva. Biofilms were treated 2 times per day, with approximately 6 h between treatments for the subsequent 3 days. On the fifth day, biofilms are treated one time in the morning and then harvested approximately 3 h after treatment by sonication. Bacterial pellets are frozen and later subjected to DNA extraction and sequencing of the V3-V4 region of the 16 s ribosomal RNA subunit in order to identify the relative abundance of bacteria present in each sample to the genus level. The final supernatants were also retained, filter-sterilized and tested for total nitrate/nitrite concentrations to determine if any changes in nitrate production could be detected from the biofilm communities.
(§3) For these studies, all solutions were made fresh in dH2O and used within 1 h of being made. Solutions were prepared by weight to contain each of the following: 3% KNO3, 1.5% L-arginine, both by weight of the solution, or no active. Additionally, all solutions contained 1.7% TSPP for additional stabilization. Solution pH values were not adjusted before treatment.
At the end of the experiment, filter sterilized samples were tested for total NO3/NO2 using a colorimetric nitrate/nitrite assay kit (Sigma). Due to low sample volumes, samples were only tested for total NO3/NO2.

[2] = tested on: Prevotella melaninogenica; test: In vitro oral biofilm model, simple solutions: 16S V3-V4 sequencing; type: cell-based; conditions: simple solutions: 3% KNO3 and/or 1.5% L-arginine; untreated (PBS) 0.31
Procedure: as §1, §2, §3
(§4) The composition of the microbiome of each sample is studied to assess the bacterial community shifts induced by treatment with: potassium nitrate alone, L-arginine alone, or potassium nitrate and L-arginine in combination.

Rothia dentocariosa = test: as above; type: cell-based
Procedure: as §1, §2, §3, §4

Veillonella parvula = test: as above; type: cell-based; conditions: simple solutions: 3% KNO3 and/or 1.5% L-arginine; untreated (PBS) 4.59
Procedure: as §1, §2, §3, §4

[3] = tested on: Neisseria flavescens subflava; test: as above; type: cell-based; conditions: simple solutions: 3% KNO3 and/or 1.5% L-arginine; untreated (PBS) 1.23
Procedure: as §1, §2, §3, §4

[4] = tested on: Haemophilus parainfluenzae; test: as above; type: cell-based; conditions: simple solutions: 3% KNO3 and/or 1.5% L-arginine; untreated (PBS) 0.14
Procedure: as §1, §2, §3, §4

Compound | Effect on growth of Haemophilus parainfluenzae (in words) [1] | Optical Density (610 nm) [1] | Biofilm Nitrite Measurement (Oral biofilms) [mg/L] | NO3/NO2 (nmole per sample) (salivary biofilms) | NO3/NO2 output (in words) (salivary biofilms) | Relative abundance of Prevotella melaninogenica [2] | Relative abundance of Rothia dentocariosa (Rothia dentocariosa) | Relative abundance of Veillonella parvula (Veillonella parvula) | Relative abundance of Neisseria flavescens subflava [3] | Relative abundance of Haemophilus parainfluenzae [4] | Relative abundance of Rothia dentocariosa (Rothia dentocariosa; simple solutions: 3% KNO3 and/or 1.5% L-arginine, untreated (PBS) 0.02)
O=[N+]([O-])[O-].[K+] [KNO3, potassium nitrate] | no effect on the growth | 0.99 | 0.8 | 6.00 | small increases | 0.67 relative units of abundance | 0 relative units of abundance | 0.78 relative units of abundance | 0.05 relative units of abundance | 0.04 relative units of abundance | 
N=C(N)NCCC[C@H](N)C(=O)O [L-arginine] | slightly reduce growth | 0.65 |  | 6.01 | small increases | 0.07 relative units of abundance |  | 3.28 relative units of abundance | 0.54 relative units of abundance | 0.83 relative units of abundance | 0.02 relative units of abundance
